According to patent US9556179B2 (BRISTOL-MYERS SQUIBB COMPANY, priority 2012, dated 2017):

Columns and labels:
CK1ε = CK1ε (Homo sapiens (Human), UniProt P49674); assay: CK1ε kinase assay (Caliper LABCHIP electrophoretic separation of fluoresceinated peptide substrate and product); assay type: biochemical; settings: 200 pM enzyme, 50 μM ATP, 22 hours at room temperature
Outline: (§1)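 Eleven-concentration compound series in kinase reactions run for 22 hours at room temperature. Terminated with EDTA, with product conversion read by electrophoretic separation. Non-linear regression gave IC50.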

CK1δ = CK1δ (Homo sapiens (Human), UniProt P48730); assay: CK1δ kinase assay (Caliper LABCHIP electrophoretic separation of fluoresceinated peptide substrate and product); assay type: biochemical; settings: 200 pM enzyme, 50 μM ATP, 22 hours at room temperature
Outline: as §1

CK1δ, sequence (P48730 whole entry): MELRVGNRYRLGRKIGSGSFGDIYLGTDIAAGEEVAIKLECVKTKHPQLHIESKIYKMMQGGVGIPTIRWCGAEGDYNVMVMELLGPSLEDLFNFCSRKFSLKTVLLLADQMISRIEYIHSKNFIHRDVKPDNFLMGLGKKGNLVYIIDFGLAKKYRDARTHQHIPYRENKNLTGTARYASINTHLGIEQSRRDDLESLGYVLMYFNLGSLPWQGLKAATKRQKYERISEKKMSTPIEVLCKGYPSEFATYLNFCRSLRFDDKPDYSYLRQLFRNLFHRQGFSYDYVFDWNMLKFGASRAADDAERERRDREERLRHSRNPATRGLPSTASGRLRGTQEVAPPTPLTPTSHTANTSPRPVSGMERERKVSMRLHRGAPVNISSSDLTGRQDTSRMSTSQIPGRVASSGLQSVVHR
CK1ε, sequence (P49674 whole entry): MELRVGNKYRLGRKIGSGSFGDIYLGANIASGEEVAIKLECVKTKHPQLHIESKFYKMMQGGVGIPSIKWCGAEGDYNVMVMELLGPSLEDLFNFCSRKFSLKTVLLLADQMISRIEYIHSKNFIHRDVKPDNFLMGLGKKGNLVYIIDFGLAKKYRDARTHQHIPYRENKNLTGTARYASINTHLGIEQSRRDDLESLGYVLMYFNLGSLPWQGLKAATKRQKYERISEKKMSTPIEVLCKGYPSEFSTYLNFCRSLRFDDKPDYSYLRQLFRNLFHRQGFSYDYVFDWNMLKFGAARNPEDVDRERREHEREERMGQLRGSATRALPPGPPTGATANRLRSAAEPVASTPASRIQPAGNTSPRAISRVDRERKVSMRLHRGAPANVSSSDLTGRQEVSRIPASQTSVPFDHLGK

## Cc1nc(-c2ccc(F)cc2)c(-c2ccc3nc(NC(=O)c4ccc(-c5ccc(Cl)cc5)[nH]4)cn3n2)n1C [Compound 329, 5-(4-chlorophenyl)-N-(6-(4-(4-fluorophenyl)-1,2-di-methyl-1H-imidazol-5-yl)imidazo[1,2-b]pyridazin-2-yl)-1H-pyrrole-2-carboxamide]
CK1ε
  IC50: 18.5 nM
CK1δ
  IC50: 3.47 nM

## N#CCCN1CCC(n2cnc(-c3ccc(F)cc3)c2-c2ccc3nc(NC(=O)c4ccnc(F)c4)cn3n2)CC1 [Compound 36, N-(6-(1-(1-(2-cyanoethyl)piperidin-4-yl)-4-(4-fluorophenyl)-1H-imidazol-5-yl)imidazo[1,2-b]pyridazin-2-yl)-2-fluoroisonicotinamide]
CK1ε
  IC50: 1.58 nM
CK1δ
  IC50: 0.197 nM

## Cc1oncc1C(=O)N1CCC(n2cnc(-c3ccc(F)cc3)c2-c2ccc3nc(NC(=O)c4ccnc(F)c4)cn3n2)CC1 [Compound 62, 2-fluoro-N-(6-(4-(4-fluorophenyl)-1-(1-(5-methylisoxazole-4-carbonyl)piperidin-4-yl)-1H-imidazol-5-yl)imidazo[1,2-b]pyridazin-2-yl)isonicotinamide]
CK1ε
  IC50: 0.256 nM
CK1δ
  IC50: 0.313 nM

## O=C(Nc1cn2nc(-c3c(-c4ccc(F)cc4)ncn3C3CCN(CC(F)(F)F)CC3)ccc2n1)c1ccnc(F)c1 [Compound 35, 2-fluoro-N-(6-(4-(4-fluorophenyl)-1-(1-(2,2,2-trifluoroethyl)piperidin-4-yl)-1H-imidazol-5-yl)imidazo[1,2-6]pyridazin-2-yl)isonicotinamide]
CK1ε
  IC50: 7.22 nM
CK1δ
  IC50: 0.527 nM

## O=C(Nc1cn2nc(-c3c(-c4ccc(F)cc4)nc4n3CCN(CCC(F)(F)F)C4)ccc2n1)c1ccnc(F)c1 [Compound 478, 2-Fluoro-N-(6-(2-(4-fluorophenyl)-7-(3,3,3-trifluoropropyl)-5,6,7,8-tetrahydroimidazo[1,2-a]pyrazin-3-yl)imidazo[1,2-b]pyridazin-2-yl)isonicotinamide]
CK1ε
  IC50: 2.3 nM
CK1δ
  IC50: 0.4 nM

## Cc1nc(-c2ccc(F)cc2)c(-c2ccc3nc(NC(=O)[C@@H]4CCC(=O)N4)cn3n2)n1C [Compound 376, N-(6-(4-(4-fluorophenyl)-1,2-dimethyl-1H-imidazol-5-yl)imidazo[1,2-b]pyridazin-2-yl)-5-oxo-L-prolinamide]
CK1ε
  IC50: 78.1 nM
CK1δ
  IC50: 8.88 nM

## NS(=O)(=O)CCCn1cnc(-c2ccc(F)cc2)c1-c1ccc2nc(NC(=O)c3ccnc(F)c3)cn2n1 [Compound 241]
CK1ε
  IC50: 1.4 nM
CK1δ
  IC50: 0.362 nM

## Cc1nc(-c2ccc(F)cc2)c(-c2ccc3nc(NC(=O)c4ccnc(F)c4)cn3n2)n1C1CCN(CCCC(F)(F)F)CC1 [Compound 146, 2-fluoro-N-(6-(4-(4-fluorophenyl)-2-methyl-1-(1-(4,4,4-trifluorobutyl)piperidin-4-yl)-1H-imidazol-5-yl)imidazo[1,2-b]pyridazin-2-yl)isonicotinamide]
CK1ε
  IC50: 24.8 nM
CK1δ
  IC50: 2.24 nM

## O=C(Nc1cn2nc(-c3c(-c4ccc(F)cc4)nc4ccccn34)ccc2n1)c1csnn1 [Compound 176, N-(6-(2-(4-fluorophenyl)imidazo[1,2-a]pyridin-3-yl)imidazo[1,2-b]pyridazin-2-yl)-1,2,3-thiadiazole-4-carboxamide]
CK1ε
  IC50: 47.4 nM
CK1δ
  IC50: 5.68 nM

## O=C(Nc1cn2nc(-c3c(-c4ccc(F)cc4)ncn3C3CCN(C(=O)c4ccno4)CC3)ccc2n1)c1ccnc(F)c1 [Compound 48, 2-fluoro-N-(6-(4-(4-fluorophenyl)-1-(1-(isoxazole-5-carbonyl)piperidin-4-yl)-1H-imidazol-5-yl)imidazo[1,2-b]pyridazin-2-yl)isonicotinamide]
CK1ε
  IC50: 1.45 nM
CK1δ
  IC50: 0.22 nM

## Cc1nc(-c2ccc(F)cc2)c(-c2ccc3nc(NC(=O)c4ccnc(F)c4)c(C)n3n2)n1C [Compound 413, 2-Fluoro-N-(6-(4-(4-fluorophenyl)-1,2-dimethyl-1H-imidazol-5-yl)-3-methylimidazo[1,2-b]pyridazin-2-yl)isonicotinamide]
CK1ε
  IC50: 19.6 nM
CK1δ
  IC50: 1.14 nM

## Cc1nc(-c2cccnc2)sc1C(=O)Nc1cn2nc(-c3c(-c4ccc(F)cc4)ncn3C3CCN(CCC(F)(F)F)CC3)ccc2n1 [Compound 98, N-(6-(4-(4-fluorophenyl)-1-(1-(3,3,3-trifluoropropyl)piperidin-4-yl)-1H-imidazol-5-yl)imidazo [1,2-b]pyridazin-2-yl)-4-methyl-2-(pyridin-3-yl)thiazole-5-carboxamide]
CK1ε
  IC50: 3.88 nM
CK1δ
  IC50: 0.268 nM

## Cc1nc(-c2ccc(F)cc2)c(-c2ccc3nc(NC(=O)c4ccc(-c5ccccc5)[nH]4)cn3n2)n1C [Compound 333, N-(6-(4-(4-fluorophenyl)-1,2-dimethyl-1H-imidazol-5-yl)imidazo[1,2-b]pyridazin-2-yl)-5-phenyl-1H-pyrrole-2-carboxamide]
CK1ε
  IC50: 3.28 nM
CK1δ
  IC50: 1.33 nM

## O=C(Nc1cn2nc(-c3c(-c4ccc(F)cc4)ncn3C3CCN(CCC(F)(F)F)CC3)ccc2n1)c1ccnc(N2CCOCC2)c1 [Compound 107, N-(6-(4-(4-fluorophenyl)-1-(1-(3,3,3-trifluoropropyl)piperidin-4-yl)-1H-imidazol-5-yl)imidazo[1,2-b]pyridazin-2-yl)-2-morpholinoisonicotinamide]
CK1ε
  IC50: 1.92 nM
CK1δ
  IC50: 0.467 nM

## Cc1nc(-c2ccc(F)cc2)c(-c2ccc3nc(NC(=O)c4ccnc(F)c4)cn3n2)n1C1CCN(C[C@H](O)C(F)(F)F)CC1 [Compound 143, (S)-2-fluoro-N-(6-(4-(4-fluorophenyl)-2-methyl-1-(1-(3,3,3-trifluoro-2-hydroxypropyl)piperidin-4-yl)-1H-imidazol-5-yl)imidazo [1,2-b]pyridazin-2-yl)isonicotinamide]
CK1ε
  IC50: 0.656 nM
CK1δ
  IC50: 0.112 nM

## O=C(Nc1cn2nc(-c3c(-c4ccc(F)cc4)ncn3C3CCN(S(=O)(=O)C4CC4)CC3)ccc2n1)c1ccnc(F)c1 [Compound 74, N-(6-(1-(1-(cyclopropylsulfonyl)piperidin-4-yl)-4-(4-fluorophenyl)-1H-imidazol-5-yl)imidazo[1,2-b]pyridazin-2-yl)-2-fluoroisonicotinamide]
CK1ε
  IC50: 1.52 nM
CK1δ
  IC50: 0.675 nM

## Cc1nc(C(=O)Nc2cn3nc(-c4c(-c5ccc(F)cc5)nc(C)n4C)ccc3n2)c[nH]1 [Compound 372, N-(6-(4-(4-fluorophenyl)-1,2-dimethyl-1H-imidazol-5-yl)imidazo[1,2-b]pyridazin-2-yl)-2-methyl-1H-imidazole-4-carboxamide]
CK1ε
  IC50: 28.3 nM
CK1δ
  IC50: 2.19 nM

## CN(C)c1cc(C(=O)Nc2cn3nc(-c4c(-c5ccc(F)cc5)nc5ccccn45)ccc3n2)ccn1 [Compound 193, 2-(dimethylamino)-N-(6-(2-(4-fluorophenyl)imidazo[1,2-a]pyridin-3-yl)imidazo[1,2-b]pyridazin-2-yl) isonicotinamide]
CK1ε
  IC50: 1.28 nM
CK1δ
  IC50: 0.111 nM

## O=C(Nc1cn2nc(-c3c(-c4ccc(F)cc4)ncn3C3CCN(CC4C[C@@H]5CC[C@H]4C5)CC3)ccc2n1)c1ccnc(F)c1 (stereo partly drawn) [Compound 31, N-(6-(1-(1-((1S,4R)-bicyclo[2.2.1]heptan-2-ylmethyl)piperidin-4-yl)-4-(4-fluorophenyl)-1H-imidazol-5-yl)imidazo[1,2-6]pyridazin-2-yl)-2-fluoroisonicotinamide]
CK1ε
  IC50: 11.2 nM
CK1δ
  IC50: 0.742 nM

## Cc1nc(-c2ccc(F)cc2)c(-c2ccc3nc(NC(=O)c4cnc[nH]4)cn3n2)n1C [Compound 380, N-(6-(4-(4-fluorophenyl)-1,2-dimethyl-1H-imidazol-5-yl)imidazo[1,2-b]pyridazin-2-yl)-1H-imidazole-5-carboxamide]
CK1ε
  IC50: 36.1 nM
CK1δ
  IC50: 5.23 nM

## O=C(Nc1cn2nc(-c3c(-c4ccc(F)cc4)nc(C4CC4)n3C3CCN(C4COC4)CC3)ccc2n1)c1ccnc(F)c1 [Compound 132, N-(6-(2-cyclopropyl-4-(4-fluorophenyl)-1-(1-(oxetan-3-yl)piperidin-4-yl)-1H-imidazol-5-yl)imidazo[1,2-b]pyridazin-2-yl)-2-fluoroisonicotinamide]
CK1ε
  IC50: 14.2 nM
CK1δ
  IC50: 1.7 nM

## Cc1nc(-c2ccc(F)cc2)c(-c2ccc3nc(NC(=O)c4ccnc(N5CCOCC5)c4)cn3n2)n1C [Compound 324, N-(6-(4-(4-fluorophenyl)-1,2-dimethyl-1H-imidazol-5-yl)imidazo[1,2-b]pyridazin-2-yl)-2-morpholinoisonicotin-amide]
CK1ε
  IC50: 1.91 nM
CK1δ
  IC50: 0.344 nM

## Cc1nc(-c2cccnc2)sc1C(=O)Nc1cn2nc(-c3c(-c4ccc(F)cc4)ncn3CCN3CCOCC3)ccc2n1 [Compound 163, N-(6-(4-(4-fluorophenyl)-1-(2-morpholinoethyl)-1H-imidazol-5-yl)imidazo [1,2-b]pyridazin-2-yl)-4-methyl-2-(pyridin-3-yl) thiazole-5-carboxamide]
CK1ε
  IC50: 0.936 nM
CK1δ
  IC50: 0.242 nM

## O=C(Nc1cn2nc(-c3c(-c4ccc(F)cc4)ncn3C3CCN(C(=O)CC(F)(F)F)CC3)ccc2n1)c1ccncc1 [Compound 6, N-(6-(4-(4-fluorophenyl)-1-(1-(3,3,3-trifluoropropanoyl)piperidin-4-yl)-1H-imidazol-5-yl)imidazo[1,2-b]pyridazin-2-yl)isonicotinamide]
CK1ε
  IC50: 1.17 nM
CK1δ
  IC50: 0.264 nM

## NC(=O)Cn1cnc(-c2ccc(F)cc2)c1-c1ccc2nc(NC(=O)c3ccnc(F)c3)cn2n1 [Compound 268, N-(6-(1-(2-amino-2-oxoethyl)-4-(4-fluorophenyl)-1H-imidazol-5-yl)imidazo[1,2-b]pyridazin-2-yl)-2-fluoroisonicotinamide]
CK1ε
  IC50: 7.57 nM
CK1δ
  IC50: 0.419 nM

## Cc1cc(-c2nc(C)n(CCF)c2-c2ccc3nc(NC(=O)c4ccnc(F)c4)cn3n2)ccc1F [Compound 299, 2-fluoro-N-(6-(4-(4-fluoro-3-methylphenyl)-1-(2-fluoroethyl)-2-methyl-1H-imidazol-5-yl)imidazo[1,2-b]pyridazin-2-yl) isonicotinamide]
CK1ε
  IC50: 0.76 nM
CK1δ
  IC50: 0.186 nM
